Patent publication US7189524B1, “Receptor ligands and methods of modulating receptors” (Amgen, Inc., priority 2002, dated 2007)

Legend:
human adipocytes = experiment: Inhibition of forskolin-stimulated lipolysis of human adipocytes (glycerol release); type: cell-based; settings: Adipocyte, 0.5 μM Forskolin, 16 hours, glycerol concentration, read-out: EC50 (anti-lipolysis)
TGR4b = biological target: T1, TGR4b (Homo sapiens, UniProt Q8TDS4); experiment: Aequorin assay for intracellular calcium, CHO cells transfected with TGR4b; type: cell-based; settings: summary of Table 1
T1 construct: expressed in transfected cells; host or cells: CHO cells, transient
T1 sequence (Q8TDS4 whole entry): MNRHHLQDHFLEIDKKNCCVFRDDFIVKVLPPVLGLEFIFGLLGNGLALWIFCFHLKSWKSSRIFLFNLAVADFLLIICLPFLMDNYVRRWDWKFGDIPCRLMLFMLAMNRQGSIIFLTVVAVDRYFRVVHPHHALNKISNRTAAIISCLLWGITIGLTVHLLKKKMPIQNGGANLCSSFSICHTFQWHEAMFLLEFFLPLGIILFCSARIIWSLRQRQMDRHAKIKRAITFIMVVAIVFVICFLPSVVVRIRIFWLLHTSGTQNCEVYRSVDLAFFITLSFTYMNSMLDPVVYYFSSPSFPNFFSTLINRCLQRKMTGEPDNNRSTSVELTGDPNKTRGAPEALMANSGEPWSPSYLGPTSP
Protocol: (§1) Aequorin catalyses the oxidation of coelenterazine, but only in the presence of Ca^2+ ions and thus can be used as an indicator of intracellular calcium levels. Briefly, the assays were performed using the following methodology.
(§2) CHO cells were transiently transfected with expression plasmids encoding TGR4b or TGR183 together with a plasmid encoding mitochondria-targeting apoaequorin. The plasmids were co-transfected with chimeric G protein Gαqi9, which has the C-terminal 9 amino acids from the Gαq protein replaced with the C-terminal 9 amino acids form the Gαi protein. Cells were harvested 24 hr later and loaded with coelenterazine for 2 hr at 37 C. Aequorin assay was performed on MicroLumat 96 luminometer (Perkin Elmer).

TGR183 = TGR183 (Homo sapiens, UniProt Q9BXC0); settings: concentration of 50 μM, FIG. 3
Sequence of TGR183 (Q9BXC0 whole entry): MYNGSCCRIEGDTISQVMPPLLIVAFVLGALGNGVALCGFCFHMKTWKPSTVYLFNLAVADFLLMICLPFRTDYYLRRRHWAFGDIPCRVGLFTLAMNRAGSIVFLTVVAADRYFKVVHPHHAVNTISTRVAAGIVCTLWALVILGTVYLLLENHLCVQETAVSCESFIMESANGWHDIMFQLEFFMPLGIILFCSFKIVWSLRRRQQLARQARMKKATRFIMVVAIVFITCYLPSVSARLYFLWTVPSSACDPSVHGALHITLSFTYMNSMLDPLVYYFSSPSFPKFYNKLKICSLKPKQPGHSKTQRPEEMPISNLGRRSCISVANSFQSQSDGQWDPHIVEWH
Protocol: as §1, §2

Cc1cnc(C(=O)O)c[n+]1[O-]
EC50 (human adipocytes): 6000 nM

O=C(O)c1cnccn1 [2-pyrazinecarboxylic acid]
EC50 (human adipocytes): 6500 nM | activity on TGR4b in words (binding and activity assays) (TGR4b): also active in binding and activity assays

Cl.O=C(O)Cc1cccnc1 [3-pyridineacetic acid HCl]
EC50 (human adipocytes): 770 nM | activity on TGR4b in words (binding and activity assays) (TGR4b): also exhibits activity

O=C(O)c1cncc(F)c1 [5-fluoro nicotinic acid]
activity on TGR4b in words (binding and activity assays) (TGR4b): much lower potency

NC(=O)c1cccnc1 [Nicotinamide]
activity on TGR4b in words (binding and activity assays) (TGR4b): completely inactive

O=C(O)c1ccnnc1 [Pyridazine 4-carboxylic acid]
EC50 (human adipocytes): 2800 nM | activity on TGR4b in words (binding and activity assays) (TGR4b): also active in binding and activity assays

O=C(O)c1cccnc1 [nicotinic acid, 3-pyridinecarboxylic acid]
EC50 (human adipocytes): 62 nM | TGR183-mediated increase in intracellular calcium (TGR183): stimulated a TGR183-mediated increase in intracellular calcium

Cl.O=C(Cl)c1cccnc1 [nicotinoyl chloride HCl]
EC50 (human adipocytes): 150 nM | activity on TGR4b in words (binding and activity assays) (TGR4b): agonist and binding activity similar to that of nicotinic acid
